Experiments:
[1] = in vitro; settings: human, Caco-2, pH 7.4
[2] = in vitro; settings: human, pH 7.4
[3] = target: T1, P-gp (Homo sapiens, UniProt P08183); experiment: in vitro
Method: (§1) Bidirectional Transcellular Transport assay.
(§2) Each determination was performed in duplicate.
The assay was carried out after each clone had been passaged 9 times.

[4] = test system: BCRP mRNA; experiment: RT-PCR of BCRP mRNA expression in transduced C2BBe1 cells; assay type: cell-based, human; settings: between passages 5 and 20
Method: RT-PCR. Total RNA was extracted from cells according to the following protocol. Cells were harvested from culture by centrifugation, resuspended in 1 ml of TRIzol® reagent (Invitrogen, Carlsbad, Calif.), and incubated at room temperature for 5 minutes with gentle shaking. The suspension was transferred to a 1.5 ml centrifuge tube, to which 200 μl of Chloroform was added, followed by an additional 5 minute incubation period with shaking. After incubation, the suspension was centrifuged at 12,000×g for 12 minutes at 4° C. The supernatant was transferred to a fresh, sterile 1.5 ml centrifuge tube, and supplemented with 0.5 ml of 2-propanaol per 1 ml of TRIzol reagent, and incubated for 10 minutes at room temperature. The mixture was then centrifuged at 12,000×g for an additional 12 minutes at 4° C. After centrifugation, the supernatant was removed and the pellet was washed with 75% ethanol. […] RNA yield and purity were quantified by absorbance at 260 nm and 280 nm. […]
For RT-PCR, total cellular RNA was harvested as described in Examples 1 and 3 and amplified by RT-PCR using primers specific to BCRP mRNA (SEQ ID NOs: 13 and 14). The RT-PCR products were separated by electrophoresis on a 2% agarose gel and analyzed to determine whether shRNA/BCRP clone cells produced substantially less BCRP mRNA than C2BBe1 cells transduced with a non-interfering shRNA vector control.

[5] = target: T2, BCRP (Homo sapiens, UniProt Q9UNQ0); experiment: Bidirectional transcellular transport of E3S (BCRP substrate) across C2BBe1-derived monolayers; settings: compared to control cells
T2 sequence (Q9UNQ0 1-655): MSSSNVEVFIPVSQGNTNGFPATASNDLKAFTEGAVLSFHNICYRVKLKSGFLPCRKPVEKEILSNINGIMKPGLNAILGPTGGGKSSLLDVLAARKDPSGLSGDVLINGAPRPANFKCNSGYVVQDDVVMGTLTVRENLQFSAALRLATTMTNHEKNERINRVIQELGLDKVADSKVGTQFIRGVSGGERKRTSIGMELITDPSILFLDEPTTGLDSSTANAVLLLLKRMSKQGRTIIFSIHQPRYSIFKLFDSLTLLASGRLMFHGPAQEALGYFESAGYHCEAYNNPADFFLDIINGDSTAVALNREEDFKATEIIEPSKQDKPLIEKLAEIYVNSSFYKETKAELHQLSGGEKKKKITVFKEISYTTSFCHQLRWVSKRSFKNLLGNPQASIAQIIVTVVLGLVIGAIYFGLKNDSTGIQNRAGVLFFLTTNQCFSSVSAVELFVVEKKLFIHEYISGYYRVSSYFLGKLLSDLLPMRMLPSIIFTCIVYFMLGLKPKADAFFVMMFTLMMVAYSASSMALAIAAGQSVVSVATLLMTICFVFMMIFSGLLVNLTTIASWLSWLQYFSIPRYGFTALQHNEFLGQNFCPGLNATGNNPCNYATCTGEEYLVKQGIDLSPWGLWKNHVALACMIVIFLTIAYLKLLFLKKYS
Method: as §1, §2
Each of the five shRNA/BCRP knockdown clone cells were seeded on transwells for three weeks for the transport assay.

[6] = test system: MRP2 mRNA; experiment: RT-PCR of MRP2 mRNA expression in transduced C2BBe1 cells; assay type: cell-based, human; settings: cells passaged 20 times
Method: (§3) RT-PCR. Total RNA was extracted from cells according to the following protocol. Cells were harvested from culture by centrifugation, resuspended in 1 ml of TRIzol® reagent (Invitrogen, Carlsbad, Calif.), and incubated at room temperature for 5 minutes with gentle shaking. The suspension was transferred to a 1.5 ml centrifuge tube, to which 200 μl of Chloroform was added, followed by an additional 5 minute incubation period with shaking. After incubation, the suspension was centrifuged at 12,000×g for 12 minutes at 4° C. The supernatant was transferred to a fresh, sterile 1.5 ml centrifuge tube, and supplemented with 0.5 ml of 2-propanaol per 1 ml of TRIzol reagent, and incubated for 10 minutes at room temperature. The mixture was then centrifuged at 12,000×g for an additional 12 minutes at 4° C. After centrifugation, the supernatant was removed and the pellet was washed with 75% ethanol. The sample was re-centrifuged at 7500×g for 5 minutes at 4° C., followed by the removal of the supernatant. The pellet was allowed to air dry at room temperature. The pellet was resuspended in pre-warmed (55° C.) nuclease-free water, and incubated at 55° C. for 10 minutes. RNA yield and purity were quantified by absorbance at 260 nm and 280 nm.
(§4) RT-PCR mixtures were set up as 50 μl samples containing buffer, 1-2 μg of RNA, 10 μM of Forward primer, 10 μM of Reverse primer, Taq polymerase, and water. Primers to amplify human P-gylcoprotein were as follows: P-gp Forward 5′-[…]-3′ (SEQ ID NO: 9); and, P-gp Reverse 5′-[…]-3′ (SEQ ID NO: 10). Primers to amplify human MRP2 were as follows: MRP2 Forward 5′-[…]-3′ (SEQ ID NO: 11); and, MRP2 Reverse 5′-[…]-3′ (SEQ ID NO: 12). Primes to amplify human BCRP were as follows: BCRP Forward 5′-[…] 3′ (SEQ ID NO: 13); and, BCRP Reverse 5′-[…] 3′ (SEQ ID NO: 14). Human β-actin was amplified in parallel as a positive control using the following primers: β-actin Forward 5′-[…]-3′ (SEQ ID NO: 15); and, β-actin Reverse 5′-[…]-3′ (SEQ ID NO: 16).
(§5) The PCR cycles proceeded in a programmable thermocycler with the following parameters: cDNA synthesis, 1 cycle, 55° C. for 30 minutes; denaturation, 1 cycle, 94° C. for 2 minutes; PCR amplification, 40 cycles of 94° C. for 15 seconds, 62° C. for 30 seconds, 72° C. for 1 minute; and, final extension, 1 cycle, 72° C. for 5 minutes. Amplification was confirmed by electrophoresis in 2% agarose gels.
For this example, gene expression of MRP2 in C2BBe1 cells was determined by observing both the MRP2 mRNA content as well as the protein content of the cells following viral transduction. To examine mRNA content, total cellular RNA was harvested and amplified by RT-PCR using primers specific to the MRP2 gene (SEQ ID NO: 11 and 12). The RT-PCR products were then analyzed after separation by electrophoresis on a 2% agarose gel.
Vector control (VC) cells were prepared from cells transducted with lentiviruses encoding a non-interfering nucleic acid sequence (SEQ ID NO 27), as described in Example 7. Methods were described in Example 1. […]

[7] = test system: P-gp mRNA; experiment: RT-PCR of P-gp mRNA expression in transduced C2BBe1 cells; assay type: cell-based, human; settings: for P-gp mRNA expression relative to control C2BBe1 cells: RT-PCR, shRNA/P-gp clone cells
Method: as §3, §4, §5
Gene expression of P-gp in knockdown cells (shRNA/P-gp clones #83, 84, 85, 86, and 87) was determined by observing P-gp mRNA content, protein content and protein functional activity. RT-PCR was used to determine the expression of the P-gp mRNA. Total cellular RNA was harvested and amplified using primers specific to P-gp mRNA. RT-PCR products were then separated by electrophoresis on a 2% agarose gel. It was determined that 4 of the 5 shRNA/P-gp clone cells contained substantially less P-gp mRNA than control C2BBe1 cells (FIG. 2, top panel). β-actin was amplified, in parallel, as a positive control, and its expression was not affected by the interfering shRNA (FIG. 2, bottom panel).

[8] = target: T1, P-gp; experiment: Calcein-AM assay; settings: transduced C2BBe1 cells vs Un-KD
Method: Calcein-AM assay. To determine activity of the P-gp protein, calcein-AM assays were conducted.
To determine the P-gp activity, cells were plated in 96-well tissue culture plates and cultured for 48. After 48 hours, cell culture media was removed and the cells were washed with phosphate buffered saline solution (PBS). After washing, cells were incubated with 1 μM calcein-AM for 30 minutes. […] After incubation with calcein-AM, the cells were rinsed with fresh control buffer and fluorescence was measured using a Fluo-star fluorescence plate reader (BMG Lab Technologies, N.C.) with excitation and emission filters set at wavelengths of 485 nm and 538 nm, respectively.
Calcein-AM efflux is not mediated by BCRP. Therefore, any increase in calcein-AM uptake by the cells can be attributed to P-gp inhibition. The cells were plated in 96-well tissue culture plates and cultured for 48 hours. After 48 hours, cell culture media was removed and the cells were washed with phosphate buffered saline solution (PBS). After washing, cells were incubated with 1 μM calcein-AM for 30 minutes. […] After incubation with calcein-AM, the cells were rinsed with fresh control buffer and fluorescence was measured using a Fluo-star fluorescence plate reader (BMG Lab Technologies, N.C.) with excitation and emission filters set at wavelengths of 485 nm and 538 nm, respectively. The assay was carried out after each clone had been passaged 9 times.

T1 sequence (P08183 whole entry): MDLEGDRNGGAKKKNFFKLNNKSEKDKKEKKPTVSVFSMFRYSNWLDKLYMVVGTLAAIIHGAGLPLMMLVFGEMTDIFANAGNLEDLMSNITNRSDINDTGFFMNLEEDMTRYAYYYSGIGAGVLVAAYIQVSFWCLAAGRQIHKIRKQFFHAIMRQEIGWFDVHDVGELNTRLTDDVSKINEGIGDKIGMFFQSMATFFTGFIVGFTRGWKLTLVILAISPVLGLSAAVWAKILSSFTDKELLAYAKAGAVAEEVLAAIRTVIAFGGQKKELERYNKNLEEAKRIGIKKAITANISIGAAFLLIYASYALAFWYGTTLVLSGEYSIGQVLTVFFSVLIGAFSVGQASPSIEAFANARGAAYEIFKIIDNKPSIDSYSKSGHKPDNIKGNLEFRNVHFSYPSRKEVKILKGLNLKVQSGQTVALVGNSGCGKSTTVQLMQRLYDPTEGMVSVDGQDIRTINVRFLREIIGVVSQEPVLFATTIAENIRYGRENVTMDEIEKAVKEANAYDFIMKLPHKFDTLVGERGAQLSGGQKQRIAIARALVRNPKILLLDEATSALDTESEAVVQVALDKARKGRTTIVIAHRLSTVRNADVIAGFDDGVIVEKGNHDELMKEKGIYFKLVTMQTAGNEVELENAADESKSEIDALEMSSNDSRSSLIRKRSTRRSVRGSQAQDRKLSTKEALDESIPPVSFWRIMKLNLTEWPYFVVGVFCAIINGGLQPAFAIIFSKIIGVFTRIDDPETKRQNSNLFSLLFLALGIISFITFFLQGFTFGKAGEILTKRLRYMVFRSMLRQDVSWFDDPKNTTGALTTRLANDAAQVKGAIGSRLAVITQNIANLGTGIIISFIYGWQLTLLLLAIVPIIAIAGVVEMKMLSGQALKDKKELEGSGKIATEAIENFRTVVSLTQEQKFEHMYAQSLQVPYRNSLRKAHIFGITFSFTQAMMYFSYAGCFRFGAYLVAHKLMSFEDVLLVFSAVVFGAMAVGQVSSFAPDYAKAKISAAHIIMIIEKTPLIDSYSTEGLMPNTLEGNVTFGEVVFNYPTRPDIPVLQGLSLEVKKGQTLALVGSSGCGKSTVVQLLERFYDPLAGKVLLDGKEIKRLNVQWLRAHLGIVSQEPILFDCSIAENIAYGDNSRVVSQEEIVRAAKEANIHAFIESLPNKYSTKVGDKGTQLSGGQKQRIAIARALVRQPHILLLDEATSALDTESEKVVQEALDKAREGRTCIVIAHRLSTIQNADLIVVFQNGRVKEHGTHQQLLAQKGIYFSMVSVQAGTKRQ

Cc1cc(=O)n(-c2ccccc2)n1C [Antipyrine]
efflux ratio at 2 h [1]: 0.84 | efflux ratio at 2 h [2]: 0.92

CNCCCN1c2ccccc2CCc2ccccc21 [Desipramine]
efflux ratio at 2 h [1]: 5.59 | efflux ratio at 2 h [2]: 6.84

C[C@H]1O[C@@H](O[C@H]2[C@@H](O)C[C@H](O[C@H]3[C@@H](O)C[C@H](O[C@H]4CC[C@@]5(C)[C@H](CC[C@@H]6[C@@H]5C[C@@H](O)[C@]5(C)[C@@H](C7=CC(=O)OC7)CC[C@]65O)C4)O[C@@H]3C)O[C@@H]2C)C[C@H](O)[C@@H]1O [Digoxin]
Papp A→B at 2 h ([3]; Caco-2, pH 7.4, Efflux of digoxin A-B): 0.2 ×10⁻⁶ cm/s | Papp B→A at 2 h ([3]; Caco-2, pH 7.4, Efflux of digoxin B-A): 3.69 ×10⁻⁶ cm/s | Papp B→A at 2 h, 10 µM ([3]; Caco-2, pH 7.4, Papp B-A (Digoxin)): 8.24 ×10⁻⁶ cm/s

COc1cc([C@@H]2c3cc4c(cc3[C@@H](O[C@@H]3O[C@@H]5CO[C@@H](C)O[C@H]5[C@H](O)[C@H]3O)[C@H]3COC(=O)[C@H]23)OCO4)cc(OC)c1O [Etoposide]
efflux ratio at 2 h [1]: 13.7 | efflux ratio at 2 h [2]: 11.5

shRNA/BCRP 801: 21-nucleotide sequence targeting human BCRP gene, SEQ ID NO: 25, lentivirally transduced into C2BBe1 cells; clone #801 (CCGGGCTGTGGCATTAAACAGAGAACTCGAGTTCTCTGTTTAATGCCACAGCTTTTTG; listed as Homo Sapiens)
BCRP mRNA knockdown over passages [4]: steadily increased | inhibition for BCRP function in E3S transport [5]: 96.43% | MRP2 mRNA levels in shRNA/BCRP clone cells [6]: reduced | P-gp mRNA levels in shRNA/BCRP clone cells ([7]; compared with #799 and control cells): higher

shRNA/P-gp #84: shRNA to human P-gp, SEQ ID NO: 2, lentivirally transduced into C2BBe1 cells; clone #84 (CCGGGCAGCAATTAGAACTGTGATTCTCGAGAATCACAGTTCTAATTGCTGCTTTTTG; listed as Homo Sapiens)
P-gp function by intracellular calcein fluorescence [8]: significantly decreased | P-gp mRNA expression relative to control C2BBe1 cells [7]: significantly reduced

shRNA/P-gp #85: shRNA to human P-gp, SEQ ID NO: 3, lentivirally transduced into C2BBe1 cells; clone #85 (CCGGCGACAGAATAGTAACTTGTTTCTCGAGAAACAAGTTACTATTCTGTCGTTTTTG; listed as Homo Sapiens)
P-gp function by intracellular calcein fluorescence [8]: significantly decreased | P-gp mRNA expression relative to control C2BBe1 cells [7]: significantly reduced

shRNA/P-gp #86: shRNA to human P-gp, SEQ ID NO: 4, lentivirally transduced into C2BBe1 cells; clone #86 (CCGGGCTCATCGTTTGTCTACAGTTCTCGAGAACTGTAGACAAACGATGAGCTTTTTG; listed as Homo Sapiens)
P-gp function by intracellular calcein fluorescence [8]: significantly decreased | P-gp mRNA expression relative to control C2BBe1 cells [7]: significantly reduced

shRNA/P-gp #87: shRNA to human P-gp, SEQ ID NO: 5, lentivirally transduced into C2BBe1 cells; clone #87 (CCGGGCTGCTTTCCTGCTGATCTATCTCGAGATAGATCAGCAGGAAAGCAGCTTTTTG; listed as Homo Sapiens)
P-gp function by intracellular calcein fluorescence [8]: significantly decreased | P-gp mRNA expression relative to control C2BBe1 cells [7]: significantly reduced
